According to patent US8765770B2, “Substituted [1,2,4]triazolo[1,5-a]pyrimidines and their use as potassium channel modulators” (Ataxion, Inc., priority 2009, dated 2014):

Biological target: T1, hSK1 channels (Homo sapiens, UniProt Q92952)
T1 construct: expressed in transfected cells; host or cells: HEK293
Assay: whole-cell patch-clamp recording of ionic current through SK channels (subtype 1) in HEK293 cells expressing hSK1
Type: cell-based
Conditions: Stimulating Concentration required for increasing the baseline current by 100%
Procedure: The ionic current through small-conductance Ca^2+-activated K^+ channels (SK channels, subtype 1) is recorded using the whole-cell configuration of the patch-clamp technique in a classic patch-clamp set-up using HEK293 tissue culture cells expressing hSK1 channels as described in e.g. WO 2006/100212.
The SC100 value determined is defined as the Stimulating Concentration required for increasing the baseline current by 100%. The below SC100 values are an indication of the SK1 activating properties of the compounds of the invention.

SC100 [µM] | Structure (SMILES)
0.20 | CON=CNc1nc2nccc(C(C)Oc3ccccc3)n2n1 (centres unmarked) [Example A, N-{7-[1-(Phenoxy)ethyl]-[1,2,4]triazolo[1,5-a]pyrimidin-2-yl}-N′-methoxy-formamidine]
0.02 | CON=CNc1nc2nccc(C(C)Oc3ccccc3C)n2n1 (centres unmarked) [Example 1, N-{7-[1-(2-Methylphenoxy)ethyl]-[1,2,4]triazolo[1,5-a]pyrimidin-2-yl}-N′-methoxy-formamidine]
